Experimental findings from patent US4647572A, “Iodoallyl and iodopropargyl substituted tetrazoles and anti-microbial compositions thereof” (Meiji Seika Kaisha, Ltd., priority 1982, dated 1987) are described below.

Molecules are shown by their SMILES. ≈ marks a conversion by molar mass, not a printed value.

Common to all, as to test: Antifungal Activity MIC (in medicinal field)
Common to all, as to assay type: cell-based

In experiment [1] the test system is Cryptococcus neoformans Cr-1. To be noted: CR1, read-out: Minimal Inhibitory Concentration (MIC).
For experiment [2], the system named is Trichophyton interdigitale. To be noted: read-out: Minimal Inhibitory Concentration (MIC).
Experiment [3] deals with Trichophyton metagrophytes 530324. To be noted: read-out: Minimal Inhibitory Concentration (MIC).
For the next experiment, the system named is Candida albicans GA-24. The conditions noted are these: GA24, read-out: Minimal Inhibitory Concentration (MIC).
Experiment [4] has as its system Aspergillus fumigatus Saito. The conditions noted are these: read-out: Minimal Inhibitory Concentration (MIC).

On to `COc1ccc(-c2nnn(CC#CI)n2)cc1` [Compound No. 24, 2-(1'-Iodopropyn-3'-yl)-5-(p-methoxyphenyl)tetrazole], for which the MIC was 50 µg/mL (≈ 147 µM) in experiment [1]; 0.09 µg/mL (≈ 0.265 µM) in experiment [2]; at most 0.05 µg/mL in experiment [3]; 12.5 µg/mL (≈ 36.8 µM) in the experiment on Candida albicans GA-24; 1.56 µg/mL (≈ 4.59 µM) in experiment [4].
The matching figures for `CCCCCCCc1nnnn1CC(I)=C(I)I` [Compound No. 41, 1-(2',3',3'-triiodoallyl)-5-n-heptyltetrazole]: 100 µg/mL (≈ 171 µM), at most 0.05 µg/mL, 0.78 µg/mL (≈ 1.33 µM), above 100 µg/mL and 3.13 µg/mL (≈ 5.34 µM).
The matching figures for `Oc1ccc(-c2nnnn2CC#CI)cc1` [Compound No. 35, 1-(1'-iodopropyn-3'-yl)-5-(p-hydroxyphenyl)tetrazole]: 0.39 µg/mL (≈ 1.2 µM), 0.1 µg/mL (≈ 0.307 µM), 0.1 µg/mL (≈ 0.307 µM), 1.56 µg/mL (≈ 4.78 µM) and 100 µg/mL (≈ 307 µM).
The matching figures for `CC(C)(C)c1nnn(CC(I)=C(I)I)n1` [Compound No. 44, 2-(2',3',3'-triiodoallyl)-5-tert.-butyltetrazole]: 50 µg/mL (≈ 91.9 µM), 0.39 µg/mL (≈ 0.717 µM), 0.39 µg/mL (≈ 0.717 µM), 50 µg/mL (≈ 91.9 µM) and 6.25 µg/mL (≈ 11.5 µM).
As to `CCCCCc1nnn(CC(I)=C(I)I)n1` [Compound No. 42, 2-(2',3',3'-triiodoallyl)-5-n-pentyltetrazole], the MIC in experiment [1] is 0.78 µg/mL (≈ 1.4 µM); in experiment [2] it was 0.19 µg/mL (≈ 0.341 µM); in experiment [3] it was 0.09 µg/mL (≈ 0.161 µM); in the experiment with Candida albicans GA-24 it was 3.13 µg/mL (≈ 5.61 µM); in experiment [4], 0.78 µg/mL (≈ 1.4 µM).
On to `CCCCCc1nnnn1CC(I)=C(I)I` [Compound No. 43, 1-(2',3',3'-triiodoallyl)-5-n-pentyltetrazole], for which the MIC is 50 µg/mL (≈ 89.6 µM) in experiment [1]; at most 0.05 µg/mL in experiment [2]; 0.09 µg/mL (≈ 0.161 µM) in experiment [3]; 12.5 µg/mL (≈ 22.4 µM) with Candida albicans GA-24; 0.39 µg/mL (≈ 0.699 µM) in experiment [4].
In the same order, the values of `Cc1nnnn1CC#CI` [Compound No. 2, 1-(1'-Iodopropyn-3'-yl)-5-methyltetrazole] are 0.78 µg/mL (≈ 3.14 µM), 0.78 µg/mL (≈ 3.14 µM), 0.78 µg/mL (≈ 3.14 µM), 1.56 µg/mL (≈ 6.29 µM) and 0.75 µg/mL (≈ 3.02 µM).
The matching figures for `O=[N+]([O-])c1ccc(-c2nnn(CC#CI)n2)cc1` [Compound No. 37, 2-(1'-iodopropyn-3'-yl)-5-(p-nitrophenyl)tetrazole]: 3.13 µg/mL (≈ 8.81 µM), 0.39 µg/mL (≈ 1.1 µM), below 0.04 µg/mL, 25 µg/mL (≈ 70.4 µM) and 6.25 µg/mL (≈ 17.6 µM).
In the same order, the values of `Clc1ccc(-c2nnnn2CC#CI)cc1` [Compound No. 26, 1-(1'-Iodopropyn-3'-yl)-5-(p-chlorophenyl)tetrazole] are 0.78 µg/mL (≈ 2.26 µM), 0.19 µg/mL (≈ 0.551 µM), below 0.04 µg/mL, 0.78 µg/mL (≈ 2.26 µM) and 0.78 µg/mL (≈ 2.26 µM).
For the compound `Cc1nnn(CC#CI)n1` [Compound No. 1, 2-(1'-iodopropyn-3'-yl)-5-methyltetrazole], the MIC in experiment [1] was 3.12 µg/mL (≈ 12.6 µM); in experiment [2], 6.25 µg/mL (≈ 25.2 µM); in experiment [3], 3.12 µg/mL (≈ 12.6 µM); in the experiment with Candida albicans GA-24, 6.25 µg/mL (≈ 25.2 µM); in experiment [4], 6.25 µg/mL (≈ 25.2 µM).
For the compound `CCCCCc1nnn(CC#CI)n1` [Compound No. 17, 2-(1'-iodopropyn-3'-yl)-5-pentyltetrazole], the MIC in experiment [1] was 3.13 µg/mL (≈ 10.3 µM); in experiment [2] it was 0.09 µg/mL (≈ 0.296 µM); in experiment [3], at most 0.05 µg/mL; in the experiment with Candida albicans GA-24, 3.13 µg/mL (≈ 10.3 µM); in experiment [4], 0.39 µg/mL (≈ 1.28 µM).
Consider `CCCc1nnn(CC(I)=C(I)I)n1` [Compound No. 46, 2-(2',3',3'-triiodoallyl)-5-n-propyltetrazole], for which the MIC in experiment [1] is 0.78 µg/mL (≈ 1.47 µM); in experiment [2], 0.09 µg/mL (≈ 0.17 µM); in experiment [3] it was at most 0.05 µg/mL; in the experiment with Candida albicans GA-24, 1.56 µg/mL (≈ 2.94 µM); in experiment [4], 0.39 µg/mL (≈ 0.736 µM).
